Assay results reported in patent US4217446A, “ωAmino-2-hydroxyalkyl derivatives of aminoglycoside antibiotics” (Pfizer Inc., priority 1974, dated 1980).
Converted amounts (≈) assume the structure as drawn.

How the values were obtained:
[1] = system: Escherichia coli; assay: in vitro antibacterial activity, minimum inhibitory concentration (M.I.C.), agar plates; assay type: cell-based; details: 24 hours at 37° C., read-out: MIC Esch. coli
Procedure: (§1) The in vitro evaluation of the compounds of the invention as antibacterial agents has been performed by determining the minimum inhibitory concentration (M.I.C.) of the test compound in a suitable medium at which growth of the particular micro-organism fails to occur. In practice, agar plates, each having incorporated therein the test compound at a particular concentration are inoculated with a standard number of cells of the test micro-organism and each plate is then incubated for 24 hours at 37° C. The plates are then observed for the presence or absence of the growth of bacteria and the appropriate M.I.C. value noted. Micro-organisms used in such tests having included strains of Escherichia coli, Klebsiella pneumoniae, Proteus mirabilis, Pseudomonas aeruginosa, Staphylococcus aureus and Streptococcus faecalis. Results of the testing of several of the compounds of this invention for their in vitro antibacterial activity, by the method described hereinbefore, are presented in Table I.

[2] = system: Klebsiella pneumoniae; assay: as above; assay type: cell-based; details: 24 hours at 37° C., read-out: MIC Kleb. pneumoniae
Procedure: as §1

[3] = system: Proteus mirabilis; assay: as above; assay type: cell-based; details: 24 hours at 37° C.
Procedure: as §1

[4] = system: Pseudomonas aeruginosa; assay: as above; assay type: cell-based; details: 24 hours at 37° C., read-out: MIC Pseud. aeruginosa
Procedure: as §1

[5] = system: Staphylococcus aureus; assay: as above; assay type: cell-based; details: 24 hours at 37° C., read-out: MIC Staph. aureus
Procedure: as §1

[6] = system: E. coli; assay: in vivo antibacterial activity against E. coli in mice, 50% protection against lethal effect; details: Escherichia coli, sc, subcutaneous, 50% protection over 72 hours, read-out: PD50
Procedure: Each compound is administered at a series of dosage levels to groups of mice and its activity is determined as the level at which it gives 50% protection, against the lethal effect of the Escherichia coli organism over a period of 72 hours.
The in vivo antibacterial activity of 1-N-[(S)-4-amino-2-hydroxybutyl]kanamycin A against E. coli in mice has been measured.

Row | MIC [1] | MIC [2] | MIC [3] | MIC [4] | MIC [5] | Compound | ED50 [6]
1 | 3.1 µg/mL (≈ 5.43 µM) | 1.6 µg/mL (≈ 2.8 µM) | 6.2 µg/mL (≈ 10.9 µM) | 0.8 µg/mL (≈ 1.4 µM) | 1.6 µg/mL (≈ 2.8 µM) | NCC[C@H](O)CN[C@@H]1C[C@H](N)[C@@H](O[C@H]2O[C@H](CN)[C@@H](O)[C@H](O)[C@H]2N)[C@H](O)[C@H]1O[C@H]1O[C@H](CO)[C@@H](O)[C@H](N)[C@H]1O [1-N-[(S)-4-Amino-2-hydroxybutyl]kanamycin B] | –
2 | 6.2 µg/mL (≈ 11.4 µM) | 6.2 µg/mL (≈ 11.4 µM) | 25 µg/mL (≈ 46.2 µM) | 12.5 µg/mL (≈ 23.1 µM) | 12.5 µg/mL (≈ 23.1 µM) | NCC[C@H](O)CN[C@@H]1C[C@H](N)[C@@H](O[C@H]2O[C@H](CN)[C@@H](O)[C@H](O)[C@H]2N)[C@H](O[C@@H]2O[C@H](CO)[C@@H](O)[C@H]2O)[C@H]1O [1-N-[(S)-4-Amino-2-hydroxybutyl]ribostamycin] | –
3 | 6.2 µg/mL (≈ 10.6 µM) | 3.1 µg/mL (≈ 5.29 µM) | 12.5 µg/mL (≈ 21.3 µM) | 3.1 µg/mL (≈ 5.29 µM) | 1.6 µg/mL (≈ 2.73 µM) | NCCC[C@H](O)CN[C@@H]1C[C@H](N)[C@@H](O[C@H]2O[C@H](CN)[C@@H](O)[C@H](O)[C@H]2O)[C@H](O)[C@H]1O[C@H]1O[C@H](CO)[C@@H](O)[C@H](N)[C@H]1O [1-N-[(S)-5-Amino-2-hydroxypentyl]kanamycin A] | –
4 | 6.2 µg/mL (≈ 10.3 µM) | 6.2 µg/mL (≈ 10.3 µM) | 3.1 µg/mL (≈ 5.17 µM) | 3.1 µg/mL (≈ 5.17 µM) | 1.6 µg/mL (≈ 2.67 µM) | NCCCC[C@H](O)CN[C@@H]1C[C@H](N)[C@@H](O[C@H]2O[C@H](CN)[C@@H](O)[C@H](O)[C@H]2O)[C@H](O)[C@H]1O[C@H]1O[C@H](CO)[C@@H](O)[C@H](N)[C@H]1O [1-N-[(S)-6-Amino-2-hydroxyhexyl]-kanamycin A] | –

Further lines, the compound ahead of its results:

Row | Compound | MIC [1] | MIC [2] | MIC [3] | MIC [4] | MIC [5] | ED50 [6]
5 | NCC(O)CN[C@@H]1C[C@H](N)[C@@H](O[C@H]2O[C@H](CN)[C@@H](O)[C@H](O)[C@H]2O)[C@H](O)[C@H]1O[C@H]1O[C@H](CO)[C@@H](O)[C@H](N)[C@H]1O (stereo partly drawn) [1-N-[3-amino-2-hydroxypropyl]kanamycin, 1-N-[3-Amino-2-hydroxpropyl]kanamycin A] | 12.5 µg/mL (≈ 22.4 µM) | 6.2 µg/mL (≈ 11.1 µM) | 12.5 µg/mL (≈ 22.4 µM) | 3.1 µg/mL (≈ 5.56 µM) | 3.1 µg/mL (≈ 5.56 µM) | –
6 | NCC[C@H](O)CN[C@@H]1C[C@H](N)[C@@H](O[C@H]2O[C@H](CN)[C@@H](O)[C@H](O)[C@H]2O)[C@H](O)[C@H]1O[C@H]1O[C@H](CO)[C@@H](O)[C@H](N)[C@H]1O [1-N-[(S)-4-Amino-2-hydroxybutyl]kanamycin A] | 6.2 µg/mL (≈ 10.8 µM) | 3.1 µg/mL (≈ 5.42 µM) | 3.1 µg/mL (≈ 5.42 µM) | 1.6 µg/mL (≈ 2.8 µM) | 1.6 µg/mL (≈ 2.8 µM) | 3.8 mg/kg
7 | CNC[C@H]1O[C@H](O[C@H]2[C@H](O)[C@@H](O[C@H]3O[C@H](CO)[C@@H](O)[C@H](N)[C@H]3O)[C@H](NC[C@@H](O)CCN)C[C@@H]2N)[C@H](O)[C@@H](O)[C@@H]1O [6'-N-Methyl-1-N-[(S)-4-amino-2-hydroxybutyl]kanamycin A] | 6.2 µg/mL (≈ 10.6 µM) | 3.1 µg/mL (≈ 5.29 µM) | 6.2 µg/mL (≈ 10.6 µM) | 3.1 µg/mL (≈ 5.29 µM) | 3.1 µg/mL (≈ 5.29 µM) | –
